# Experimental data: patent US20260345619A1 (Principia Biopharma Inc., priority 2023, published 2026)
# Assay: Loss of asthma control (LOAC) events, 12-week ICS/LABA withdrawal study
# Assay type: in vivo, human
# From the text: The general construct of this 12-week Loss of Asthma Control (LOAC) study consisted of a 4-week standardized ICS/LABA background therapy stabilization phase, a 4or 5-week background therapy withdrawal phase and a 3- or 4-week no background therapy phase, followed by a 4-week post IMP treatment safety follow-up period at the beginning of which, pre-screening asthma controller medications are restarted. Participants had access to short-acting β-agonist (SABA) reliever medication at all times during the protocol.
# The primary endpoint was the proportion of patients with LOAC. The key secondary endpoint for the study was change in pre-bronchodilator FEV1 from baseline at EOT.
# The primary endpoint was proportion of participants with LOAC during the 12-week treatment period.
# Note that if the number of participants in some regions was too low, these regions may have been pooled with other regions. This strategy also applied to all the rest of the analyses where region was one of the covariates.
# To assess the consistency in treatment effects across different subgroup levels, subgroup analyses were to be performed for the primary efficacy endpoint with respect to age group, gender, region, and other factors.
# Secondary endpoints included pre-bronchodilator FEV1 change from baseline at EOT, ACQ-5 score change from baseline, and AQLQ score change from baseline. Other secondary and exploratory endpoints are described in Table 2.
# [1] = 400 mg BID cohort, Latin America, n = 25
# [2] = 400 mg BID cohort, N = 32, mITT
# [3] = 400 mg BID cohort, age <45 years, n = 12
# [4] = 400 mg BID cohort, age ≥45 years, n = 20
# [5] = 400 mg BID cohort, baseline BMI <25 kg/m^2, n = 8
# [6] = 400 mg BID cohort, baseline BMI ≥25-<30 kg/m^2, n = 16
# [7] = 400 mg BID cohort, baseline BMI ≥30 kg/m^2, n = 8
# [8] = 400 mg BID cohort, baseline weight ≥60-<90 kg, n = 23
# [9] = 400 mg BID cohort, female, n = 18
# [10] = 400 mg BID cohort, male, n = 14
# [11] = 400 mg BID, N=32, 12 weeks, mITT
# [12] = 400 mg BID, 1 exacerbation within 2 years
# [13] = 400 mg BID, 2 exacerbations within 2 years
# [14] = 400 mg BID, >2 exacerbations within 2 years
# [15] = 400 mg BID, FEV1 reversibility <12 %
# [16] = 400 mg BID, FEV1 reversibility ≥12 %
# [17] = 400 mg BID, age at onset <12 years
# [18] = 400 mg BID, age at onset <18 years
# [19] = 400 mg BID, age at onset ≥12-<18 years
# [20] = 400 mg BID, age at onset ≥18-<40 years
smiles,measurement,setting,value
"CC(C)(C=C(C#N)C(=O)N1CCC[C@@H](n2nc(-c3ccc(Oc4ccccc4)cc3F)c3c(N)ncnc32)C1)N1CCN(C2COC2)CC1 (mixture of isomers) [rilzabrutinib, (R)-2-[3-[4-amino-3-(2-fluoro-4-phenoxy-phenyl)pyrazolo[3,4-d]pyrimidin-1-yl]piperidine-1-carbonyl]-4-methyl-4-[4-(oxetan-3-yl)piperazin-1-yl]pent-2-enenitrile]","LOAC incidence, number of participants","400 mg BID cohort, APAC, n = 2",2
same,"LOAC incidence, percentage","400 mg BID cohort, APAC, n = 2",(100)
same,"LOAC incidence, number of participants","400 mg BID cohort, Eastern Europe, n = 3",1
same,LOAC OR vs. placebo,"400 mg BID cohort, Eastern Europe, 95% CI (0.023, 11.088)",0.500
same,LOAC RD vs. placebo,"400 mg BID cohort, Eastern Europe, 95% CI (−0.891, 0.558)",−0.167
same,"LOAC incidence, number of participants",[1],9
same,"LOAC incidence, percentage",[1],(36.0)
same,LOAC OR vs. placebo,"400 mg BID cohort, Latin America, 95% CI (0.230, 2.230)",0.716
same,LOAC RD vs. placebo,"400 mg BID cohort, Latin America, 95% CI (−0.351, 0.191)",−0.080
same,"Intervention discontinuation due to lack of efficacy or an AE related to asthma worsening, number",[2],0
same,Number of participants requiring hospitalization or emergency room visit,[2],0
same,Number of participants with LOAC: No,[2],20
same,Number of participants with LOAC: Yes,[2],12
same,Number of participants with increase in ICS ≥4 times the last prescribed ICS dose (or ≥50% of the prescribed ICS dose at baseline if background therapy withdrawal completed),[2],1
same,Number of participants with ≥6 additional reliever puffs of salbutamol/albuterol or levosalbutamol/levalbuterol in a 24 hour period (compared with baseline) on 2 consecutive days,[2],2
same,Number of participants with ≥30% reduction from baseline in AM PEF on 2 consecutive days,[2],6
same,"Participants with LOAC not triggered by use of rescue medication, number",[2],6
same,"Participants with LOAC not triggered by use of rescue medication, percentage",[2],(18.8)
same,"Participants with LOAC triggered by use of rescue medication, number",[2],6
same,"Participants with LOAC triggered by use of rescue medication, percentage",[2],(18.8)
same,Percentage of participants with LOAC: No,[2],(62.5)
same,Percentage of participants with LOAC: Yes,[2],(37.5)
same,Percentage of participants with increase in ICS ≥4 times the last prescribed ICS dose (or ≥50% of the prescribed ICS dose at baseline if background therapy withdrawal completed),[2],(3.1)
same,Percentage of participants with ≥6 additional reliever puffs of salbutamol/albuterol or levosalbutamol/levalbuterol in a 24 hour period (compared with baseline) on 2 consecutive days,[2],(6.3)
same,Percentage of participants with ≥30% reduction from baseline in AM PEF on 2 consecutive days,[2],(18.8)
same,"LOAC incidence, number of participants","400 mg BID cohort, Western Countries, n = 2",0
same,"LOAC incidence, number of participants",[3],6
same,"LOAC incidence, percentage",[3],(50.0)
same,LOAC OR vs. placebo,"400 mg BID cohort, age <45 years, 95% CI (0.342, 18.129)",2.489
same,LOAC RD vs. placebo,"400 mg BID cohort, age <45 years, 95% CI (−0.266, 0.634)",0.184
same,"LOAC incidence, number of participants",[4],6
same,"LOAC incidence, percentage",[4],(30.0)
same,LOAC OR vs. placebo,"400 mg BID cohort, age ≥45 years, 95% CI (0.069, 1.023)",0.266
same,LOAC RD vs. placebo,"400 mg BID cohort, age ≥45 years, 95% CI (−0.583, −0.007)",−0.295
same,"LOAC incidence, number of participants",[5],3
same,"LOAC incidence, percentage",[5],(37.5)
same,LOAC OR vs. placebo,"400 mg BID cohort, baseline BMI <25 kg/m^2, 95% CI (0.033, 2.763)",0.300
same,LOAC RD vs. placebo,"400 mg BID cohort, baseline BMI <25 kg/m^2, 95% CI (−0.796, 0.213)",−0.292
same,"LOAC incidence, number of participants",[6],6
same,"LOAC incidence, percentage",[6],(37.5)
same,LOAC OR vs. placebo,"400 mg BID cohort, baseline BMI ≥25-<30 kg/m^2, 95% CI (0.168, 2.709)",0.675
same,LOAC RD vs. placebo,"400 mg BID cohort, baseline BMI ≥25-<30 kg/m^2, 95% CI (−0.431, 0.240)",−0.096
same,"LOAC incidence, number of participants",[7],3
same,"LOAC incidence, percentage",[7],(37.5)
same,LOAC OR vs. placebo,"400 mg BID cohort, baseline BMI ≥30 kg/m^2, 95% CI (0.107, 5.238)",0.750
same,LOAC RD vs. placebo,"400 mg BID cohort, baseline BMI ≥30 kg/m^2, 95% CI (−0.536, 0.397)",−0.069
same,"LOAC incidence, number of participants","400 mg BID cohort, baseline weight <60 kg, n = 3",0
same,"LOAC incidence, number of participants",[8],10
same,"LOAC incidence, percentage",[8],(43.5)
same,LOAC OR vs. placebo,"400 mg BID cohort, baseline weight ≥60-<90 kg, 95% CI (0.366, 3.640)",1.154
same,LOAC RD vs. placebo,"400 mg BID cohort, baseline weight ≥60-<90 kg, 95% CI (−0.244, 0.314)",0.035
same,"LOAC incidence, number of participants","400 mg BID cohort, baseline weight ≥90 kg, n = 6",2
same,LOAC OR vs. placebo,"400 mg BID cohort, baseline weight ≥90 kg, 95% CI (0.013, 4.729)",0.250
same,LOAC RD vs. placebo,"400 mg BID cohort, baseline weight ≥90 kg, 95% CI (−0.987, 0.320)",−0.333
same,"LOAC incidence, number of participants",[9],7
same,"LOAC incidence, percentage",[9],(38.9)
same,LOAC OR vs. placebo,"400 mg BID cohort, female, 95% CI (0.076, 1.263)",0.311
same,LOAC RD vs. placebo,"400 mg BID cohort, female, 95% CI (−0.560, 0.045)",−0.258
same,"LOAC incidence, number of participants",[10],5
same,"LOAC incidence, percentage",[10],(35.7)
same,LOAC OR vs. placebo,"400 mg BID cohort, male, 95% CI (0.173, 24.590)",2.062
same,LOAC RD vs. placebo,"400 mg BID cohort, male, 95% CI (−0.420, 0.931)",0.256
same,"participants without LOAC, number",[11],20
same,"participants without LOAC, percent",[11],(62.5)
same,"participants with LOAC, number","400 mg BID, N=32, 12 weeks, mITT, placebo 16",12
same,"RRR vs. placebo (%), LOAC","400 mg BID, mITT",24.4%
same,"RR vs. placebo, LOAC","400 mg BID, mITT, 95% CI 0.433, 1.319",0.756
same,"RD (risk difference) vs. placebo, LOAC","400 mg BID, mITT, 95% CI −0.361, 0.115",−0.123
same,OR vs. placebo,[12],1.218
same,RD vs. Placebo,[12],0.059
same,"LOAC, number",[13],4
same,OR vs. placebo,[13],0.471
same,RD vs. Placebo,[13],−0.199
same,"LOAC, number",[14],3
same,OR vs. placebo,[14],0.508
same,OR vs. placebo,[15],0.611
same,RD vs. Placebo,[15],−0.119
same,"LOAC, number",[16],6
same,OR vs. placebo,[16],0.533
same,RD vs. Placebo,[16],−0.156
same,"LOAC, number",[17],4
same,OR vs. placebo,[17],2.000
same,RD vs. Placebo,[17],0.159
same,OR vs. placebo,[18],1.402
same,RD vs. Placebo,[18],0.126
same,"LOAC, number",[19],1
same,OR vs. placebo,[19],0.250
same,RD vs. Placebo,[19],−0.300
same,"LOAC, number",[20],4
same,OR vs. placebo,[20],0.267
